Assay results reported in PMC6176987, “Correction of cognitive deficits in mouse models of Down syndrome by a pharmacological inhibitor of DYRK1A” (Disease Models & Mechanisms, 2018).

Tests used:
[1] = L41 levels in brain nuclear and cytoplasmic fractions; conditions: mouse, in vivo
Method: Thus, DYRK1A overexpression in the transgenic animals' brains appears to be limited to the cytoplasmic fraction, corresponding to the subcellular distribution of overexpressed DYRK1A (Fig. 7A,B). Accordingly, more L41 is detected in the cytoplasmic fraction from transgenic animals compared with their control littermates.
Nuclear, cytosolic and synaptosomal subcellular fractionation of brain tissue was performed with the Syn-PER™ and ProteoExtract® Tissue Dissociation Buffer Kit and Subcellular Proteome Extraction Kit following the instructions of the manufacturer. Fractions were analysed by SDS-PAGE and WB with specific antibodies.

[2] = tested on: Tg(Dyrk1a) mice brain phosphoproteins; assay: Brain phosphoproteomic analysis, Tg(Dyrk1a) mice; assay type: in vivo, mouse; conditions: 20 mg/kg daily i.p. 19 days
From the text: All tissue samples were processed for phosphoproteomics analysis based on the enrichment and separation of proteotypic phosphopeptides with HILIC (see Materials and Methods). In Tg(Dyrk1a) and Ts65Dn mice, the hippocampus, cortex and cerebellum yielded 1384, 1523 and 2004 peptides, respectively, corresponding to 886, 948 and 1229 proteins (Table 1; Tables S1-S13).
Only biological processes common to the three brain regions and both models are presented (complete biological processes are listed in Tables S11-S13).
DYRK1A substrates and their respective phosphorylation sites were identified in the phosphoproteome based on the DYRK1A phosphorylation consensus sequence R-P-x(1,3)-S/T-P ([Himpel et al., 2000]). […] Biological process enrichments of each cluster were assessed by using ToppCluster web server application. […]
Protein Identification and Quantification. […]
Precursor Mass Tolerance 10 ppm, Fragment Mass Tolerance 20 mmu, Dynamic Modifications were Oxidation of M (+15.995 Da), Deamidation of N, Q (+0.984 Da), Phosphorylation of S (+79.966 Da) and Static Modifications were iTRAQ8plex at any N-Terminus, K, Y (+304.205 Da) and Methylthio at C (+45.988 Da). […] The Reporter Ion Quantifier node included a custom iTRAQ 8plex (Thermo Scientific Instruments) Quantification Method, integration window tolerance of 10 ppm with Most Confident Centroid. […]

Tg(Dyrk1a) mice = assay: Novel object recognition (NOR) test in Tg(Dyrk1a) mice; assay type: in vivo, mouse; conditions: for Recovery in NOR test: 20 mg/kg daily i.p., 24 h retention delay

Question: With O=C1NC(Nc2ccccc2)=N/C1=C\c1ccc2c(c1)OCO2 [L41] as the compound, how does the “L41 level in brain cytoplasmic fraction, Tg(Dyrk1a) vs wt” value [1] read?
Answer: significantly increased

Question: What about the “L41 levels in brain nuclear fractions, Tg(Dyrk1a) vs wt” value [1] of the same compound?
Answer: identical L41 levels

Question: And the “SYN1 Ser551 phosphorylation following treatment” value [2]?
Answer: dephosphorylated

Question: What about the “Recovery in NOR test” value (Tg(Dyrk1a) mice; 5 days) of the same compound?
Answer: only marginally

Question: What about the “Recovery in NOR test” value (Tg(Dyrk1a) mice; 12 days) of the same compound?
Answer: consistently

Question: And the “Recovery in NOR test” value (Tg(Dyrk1a) mice; 19 days)?
Answer: fully observed

Question: And the “Persistence of NOR rescue” value (Tg(Dyrk1a) mice; 24 h after the last day of the 19 day treatment)?
Answer: rescuing effect was detectable

Question: And the “Persistence of NOR rescue” value (Tg(Dyrk1a) mice; 48 h after the last day of the 19 day treatment)?
Answer: no rescue
